Source: US20230014445A1, “ALLOSTERIC CHROMENONE INHIBITORS OF PHOSPHOINOSITIDE 3-KINASE (PI3K) FOR THE TREATMENT OF DISEASE” (Petra Pharma Corporation, priority 2021, published 2023)
Like-named read-outs stand apart in the source and are kept apart here.

Legend:
[1] = biological target: T1, human full length PIK3KA H1047R mutant (p110α/p85α complex) (Homo sapiens, UniProt P42336, H1047R); test: PI3K-Alpha Kinase (PIK3CA) biochemical activity, H1047R mutant (ADP-Glo); settings: Soy PI lipid substrate, 20 uM ATP
T1 construct: Recombinant, catalytically active human full length PIK3KA Wild-type and H1047R mutant were purchased; 6xHis (N); purchased EMD Millipore Sigma 14-792M
Procedure, shortened: (§1)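 ADP formation, measured by ADP-Glo luminescence after reaction to about 10% ATP conversion at 27° C., gives 10-point 4-parameter IC50 curves normalized to no-enzyme and DMSO controls. Lipid substrate was PIP2diC8 or Soy PI at 50 uM, with 20 uM ATP. WT or H1047R p110α/p85α complex (1-5 nM) was preincubated 1 h with compound.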

[2] = biological target: T2, human full length PIK3KA Wild-type (p110α/p85α complex) (Homo sapiens, UniProt P42336); test: PI3K-Alpha Kinase (PIK3CA) biochemical activity, wild-type (ADP-Glo); settings: Soy PI lipid substrate, 20 uM ATP
T2 construct: Recombinant, catalytically active human full length PIK3KA Wild-type and H1047R mutant were purchased; 6xHis (N); purchased EMD Millipore Sigma 14-602M
Procedure, shortened: as §1

[3] = biological target: PI3K-α (PIK3CA) in MDA-MB-453 cells (Homo sapiens, UniProt P42336); test: PI3K-Alpha Kinase (PIK3CA) activity in vitro cell based assay (AlphaLisa SureFire)
Experimental: PI3K-Alpha Kinase (PIK3CA) Activity In Vitro Cell Based Assay and Determining IC50 Values for Inhibitors
The MDA-MB-453 (ATCC-HTB-131) cell line was obtained from the American Type Culture Collection (Manassas, Va.). Cells were maintained in Dulbecco's Modified Eagle Media (DMVEM, Gibco 11965-092) supplemented with 10% Fetal Bovine Serum, heat inactivated (FBS HI, Gibco 10082-147), 1× non-essential amino acids (NEAA, Gibco 11140-050), and 1 mM sodium pyruvate (Gibco 11360-070). Cultures were maintained in a humidified incubator at 37° C. under […].
For compound testing in 0% FBS, MDA-MB-453 cells were seeded at a density of 1.5×10^4 cells per well in white 384-well plates in 20 μl of Minimum Essential Media (MEM) assay media with 1×NEAA, 1 mM sodium pyruvate, and 1 μg/mL human insulin (Sigma I9278). Compounds dissolved in 10 mM stock solutions in DMSO were serially diluted 1:3 in DMSO to generate a 10-point dilution series and plated using an acoustic liquid handler system (Echo 550 Series Liquid Handler, Labcyte). A 5× intermediate compound dilution plate in MEM with 1×NEAA and 1 mM sodium pyruvate (150 μM starting compound concentration in 1.5% DMSO) was then prepared. Five μl of the intermediate serially diluted compounds were added to the cell plate to final concentrations ranging from […] in 0.3% DMSO. 0.3% DMSO alone was used to establish the maximum (MAX) signal and GDC-0032 at a final concentration of 1 μM was used as a reference compound for the minimum (MIN) signal. After 3 hours treatment, the medium was removed, and the cells lysed in 10 μL of 1× SureFire Lysis buffer with shaking for 10 minutes at room temperature. The Acceptor Mix (Reaction Buffer 1+Reaction Buffer 2+Activation Buffer+SureFire Ultra Acceptor Beads) was prepared by diluting Activation buffer 25-fold in combined Reaction Buffer 1 and Reaction Buffer 2. The Acceptor beads were diluted 50-fold in the combined Reaction Buffers. Five μL of Acceptor Mix was added to each well, the plate was sealed and covered with foil and incubated for 1 hour at room temperature. The Donor Mix (dilution buffer+SureFire Ultra Donor Beads) was prepared by diluting Donor Beads 50-fold in dilution buffer. Five μL of the Donor Mix was added to each well and the plate sealed and covered with foil and incubated for 1 hour at room temperature in the dark. The plates were read on a Neo2 plate reader instrument from Biotek using standard AlphaLisa settings.
Compounds were tested in duplicate and the average % inhibition at each compound concentration was used to generate a single dose response curve. The data were processed using the Genedata-Screener tool. Relative IC50 values were determined using luminescence units by calculating percent inhibition with respect to the in-plate “MIN” (GDC-0032 reference control) and “MAX” (DMSO) controls. The data was analyzed using a 4-parameter nonlinear logistic equation (four-parameter logistic concentration-response curve):
Y=bottom+[(top−bottom)/1+(X/IC50)slope]
where Y=% inhibition, X=concentration of inhibitor, bottom=minimum value of y attained by curve-fit, top=maximum value of y attained by curve-fit and slope=steepness of curve at the IC50.
% Inhibition=[(signal at X−median Min)/(median Max−median Min)]×100
IC50: concentration of compound that reduces a given response (ligand binding, enzyme response) by 50%. Relative IC50: concentration giving half the compound's maximum response.
For IC50 values shown in Table B, “A” means IC50<50 nM; “B” means IC50 ranging between 50 nM and 100 nM; “C” means IC50 ranging between 100 nM and 500 nM; “D” means IC50>500 nM.

[4] = read-out: PI3K-α (PIK3CA) in vitro cell based assay IC50, 0% FBS, 3 hours treatment
[5] = 0% FBS, 3 hours treatment, read-out: PI3K-α (PIK3CA) in vitro cell based assay IC50

T1 sequence (P42336 whole entry H1047R): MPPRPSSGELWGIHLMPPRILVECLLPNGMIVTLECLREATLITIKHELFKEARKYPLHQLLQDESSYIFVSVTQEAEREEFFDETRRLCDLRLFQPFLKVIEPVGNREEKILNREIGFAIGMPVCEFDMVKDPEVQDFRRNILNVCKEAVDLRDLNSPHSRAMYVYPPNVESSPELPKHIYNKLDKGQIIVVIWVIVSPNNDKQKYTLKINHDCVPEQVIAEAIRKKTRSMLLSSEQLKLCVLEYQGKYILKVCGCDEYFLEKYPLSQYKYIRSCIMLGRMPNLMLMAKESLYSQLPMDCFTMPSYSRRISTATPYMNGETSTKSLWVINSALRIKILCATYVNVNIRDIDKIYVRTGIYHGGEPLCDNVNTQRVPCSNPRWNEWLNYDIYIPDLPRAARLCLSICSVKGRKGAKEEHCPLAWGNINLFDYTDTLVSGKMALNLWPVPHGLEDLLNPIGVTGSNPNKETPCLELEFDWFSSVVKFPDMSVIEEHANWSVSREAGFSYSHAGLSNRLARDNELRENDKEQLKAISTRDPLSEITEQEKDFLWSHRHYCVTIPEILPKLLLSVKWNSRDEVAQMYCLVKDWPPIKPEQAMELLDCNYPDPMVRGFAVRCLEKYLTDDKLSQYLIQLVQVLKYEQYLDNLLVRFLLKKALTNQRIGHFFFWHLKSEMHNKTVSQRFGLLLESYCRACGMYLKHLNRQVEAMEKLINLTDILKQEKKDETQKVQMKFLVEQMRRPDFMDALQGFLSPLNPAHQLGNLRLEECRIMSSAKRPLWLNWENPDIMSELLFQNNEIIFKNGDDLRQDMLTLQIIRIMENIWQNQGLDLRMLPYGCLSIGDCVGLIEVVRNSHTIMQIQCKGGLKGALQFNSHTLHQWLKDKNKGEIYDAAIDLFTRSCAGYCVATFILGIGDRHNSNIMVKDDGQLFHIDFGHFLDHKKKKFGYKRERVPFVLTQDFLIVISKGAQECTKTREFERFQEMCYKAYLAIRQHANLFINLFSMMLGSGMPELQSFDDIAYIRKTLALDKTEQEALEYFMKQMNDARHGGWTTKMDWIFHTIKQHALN
T1 sequence (P27986 whole entry partner): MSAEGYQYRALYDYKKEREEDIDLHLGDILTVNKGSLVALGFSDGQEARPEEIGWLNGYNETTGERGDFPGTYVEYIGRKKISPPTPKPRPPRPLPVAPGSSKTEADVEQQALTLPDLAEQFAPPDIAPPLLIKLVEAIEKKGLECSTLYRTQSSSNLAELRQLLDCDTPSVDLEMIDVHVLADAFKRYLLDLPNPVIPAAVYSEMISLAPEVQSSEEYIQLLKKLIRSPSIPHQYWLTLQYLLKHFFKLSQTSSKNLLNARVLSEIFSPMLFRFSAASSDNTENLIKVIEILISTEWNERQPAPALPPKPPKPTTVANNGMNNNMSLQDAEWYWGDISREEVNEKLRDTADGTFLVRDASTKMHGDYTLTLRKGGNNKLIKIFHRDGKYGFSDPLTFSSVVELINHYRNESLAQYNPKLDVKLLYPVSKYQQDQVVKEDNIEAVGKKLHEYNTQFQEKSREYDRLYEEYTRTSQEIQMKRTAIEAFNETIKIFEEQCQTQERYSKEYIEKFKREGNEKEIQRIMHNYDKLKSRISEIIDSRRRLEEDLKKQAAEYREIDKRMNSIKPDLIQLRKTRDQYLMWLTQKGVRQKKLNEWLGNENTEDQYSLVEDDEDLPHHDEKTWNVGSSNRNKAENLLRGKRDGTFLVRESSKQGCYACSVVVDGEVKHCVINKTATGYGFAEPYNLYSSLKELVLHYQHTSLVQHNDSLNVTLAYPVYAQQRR
Sequence of PI3K-α (PIK3CA) in MDA-MB-453 cells (P42336 whole entry): as the sequence (P42336 whole entry H1047R) above, with R1047H counted along it
Sequence of PI3K-α (PIK3CA) in MDA-MB-453 cells (P27986 2-724, further chain): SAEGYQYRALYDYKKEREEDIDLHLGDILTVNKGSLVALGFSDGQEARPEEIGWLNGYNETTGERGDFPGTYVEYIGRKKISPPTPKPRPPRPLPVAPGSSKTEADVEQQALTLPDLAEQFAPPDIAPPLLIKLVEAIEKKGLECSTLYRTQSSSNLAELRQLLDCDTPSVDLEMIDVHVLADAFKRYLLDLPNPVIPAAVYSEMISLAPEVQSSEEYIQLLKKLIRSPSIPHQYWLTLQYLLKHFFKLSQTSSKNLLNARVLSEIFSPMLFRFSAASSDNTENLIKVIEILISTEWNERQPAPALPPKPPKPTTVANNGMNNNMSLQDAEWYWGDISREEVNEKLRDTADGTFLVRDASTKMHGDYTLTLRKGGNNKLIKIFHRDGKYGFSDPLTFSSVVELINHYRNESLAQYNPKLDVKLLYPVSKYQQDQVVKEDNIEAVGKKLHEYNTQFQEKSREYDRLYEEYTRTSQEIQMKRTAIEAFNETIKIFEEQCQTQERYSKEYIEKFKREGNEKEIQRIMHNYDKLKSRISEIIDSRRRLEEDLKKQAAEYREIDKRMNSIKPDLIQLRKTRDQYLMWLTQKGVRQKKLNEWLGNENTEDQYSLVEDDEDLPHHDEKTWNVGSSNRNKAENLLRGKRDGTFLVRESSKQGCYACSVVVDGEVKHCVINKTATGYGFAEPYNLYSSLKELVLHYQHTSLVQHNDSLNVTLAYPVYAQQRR

IC50 [3, 5] [µM] | Compound | IC50 [1] [µM] | IC50 [2] [µM] | IC50 [3, 4] [µM]
 | Cc1cc(C(C)Nc2ccccc2C(=O)O)c2oc(-c3cc(C)n[nH]3)cc(=O)c2c1 (single isomer, unassigned) [Example 75, 2-[1-[6-Methyl-2-(3-methyl-1H-pyrazol-5-yl)-4-oxo-chromen-8-yl]ethylamino]benzoic acid, Isomer 2,2,2,2-trifluoroacetic acid] | < 0.5 | 5 to 10 | 0.05 to 0.1
 | COc1ccc(-n2cc(-c3cc(=O)c4cc(C)cc(C(C)Nc5ccccc5C(=O)O)c4o3)cn2)cc1 (single isomer, unassigned) [Example 79, 2-[1-[2-[1-(4-Methoxyphenyl)pyrazol-4-yl]-6-methyl-4-oxo-chromen-8-yl]ethylamino]benzoic acid, Isomer 2,2,2,2-trifluoroacetic acid] | < 0.5 | 1 to 5 | 0.05 to 0.1
 | Cc1cc(C(C)Nc2ccccc2C(=O)O)c2oc(-c3cnn(-c4ccccc4)c3)cc(=O)c2c1 (single isomer, unassigned) [Example 80, 2-[1-[6-Methyl-4-oxo-2-(1-phenylpyrazol-4-yl)chromen-8-yl]ethylamino]benzoic acid, Isomer 2,2,2,2-trifluoroacetic acid] | < 0.5 | 5 to 10 | < 0.05
 | COc1ccc(-n2cc(-c3cc(=O)c4cc(C)cc(C(C)Nc5ccccc5C(=O)O)c4o3)cn2)cn1 (single isomer, unassigned) [Example 81, 2-[1-[2-[1-(6-Methoxy-3-pyridyl)pyrazol-4-yl]-6-methyl-4-oxo-chromen-8-yl]ethylamino]benzoic acid, Isomer 2,2,2,2-trifluoroacetic acid] | 0.5 to 1 | 5 to 10 | 0.05 to 0.1
 | Cc1cc(C(C)Nc2ccccc2C(=O)O)c2oc(-c3cnn(-c4ccc(C#N)nc4)c3)cc(=O)c2c1 (single isomer, unassigned) [Example 82, 2-[1-[2-[1-(6-Cyano-3-pyridyl)pyrazol-4-yl]-6-methyl-4-oxo-chromen-8-yl]ethylamino]benzoic acid, Isomer 2,2,2,2-trifluoroacetic acid] | < 0.5 | 1 to 5 | 0.05 to 0.1
 | Cc1cc(C(C)Nc2ccccc2C(=O)O)c2oc(-c3cnn(-c4ccc(C#N)cn4)c3)cc(=O)c2c1 (single isomer, unassigned) [Example 83, 2-[1-[2-[1-(5-Cyano-2-pyridyl)pyrazol-4-yl]-6-methyl-4-oxo-chromen-8-yl]ethylamino]benzoic acid, Isomer 2,2,2,2-trifluoroacetic acid] | < 0.5 | > 10 | 0.05 to 0.1
 | Cc1cc(C(C)Nc2ccccc2C(=O)O)c2oc(-c3cnn(-c4ccc(C#N)c(F)c4)c3)cc(=O)c2c1 (single isomer, unassigned) [Example 85, 2-[1-[2-[1-(4-Cyano-3-fluoro-phenyl)pyrazol-4-yl]-6-methyl-4-oxo-chromen-8-yl]ethylamino]benzoic acid, Isomer 2,2,2,2-trifluoroacetic acid] | < 0.5 | 1 to 5 | 0.1 to 0.5
 | COc1ccc(-n2cc(-c3cc(=O)c4cc(C)cc(C(C)Nc5ccccc5C(=O)O)c4o3)cn2)cc1C#N (single isomer, unassigned) [Example 86, 2-[1-[2-[1-(3-Cyano-4-methoxy-phenyl)pyrazol-4-yl]-6-methyl-4-oxo-chromen-8-yl]ethylamino]benzoic acid, Isomer 2,2,2,2-trifluoroacetic acid] | < 0.5 | 1 to 5 | 0.1 to 0.5
 | Cc1cc(C(C)Nc2ccccc2C(=O)O)c2oc(-c3ccc(C4(C#N)CC4)nc3)c(C)c(=O)c2c1 (single isomer, unassigned) [Example 89, 2-[1-[2-[6-(1-Cyanocyclopropyl)-3-pyridyl]-3,6-dimethyl-4-oxo-chromen-8-yl]ethylamino]benzoic acid, Isomer 1,2,2,2-trifluoroacetic acid] | < 0.5 | 1 to 5 | < 0.05
 | Cc1cc(C(C)Nc2ccc(Cl)nc2C(=O)O)c2oc(-c3ccccn3)c(C)c(=O)c2c1 (single isomer, unassigned) [Example 121, 6-Chloro-3-[1-[3,6-dimethyl-4-oxo-2-(2-pyridyl)chromen-8-yl]ethylamino]pyridine-2-carboxylic acid, Isomer 1,2,2,2-trifluoroacetic acid] | < 0.5 | 1 to 5 | < 0.05
 | Cc1cc(C(C)Nc2ccccc2C(=O)O)c2oc(-c3cn(-c4ccc(C#N)cc4)nn3)cc(=O)c2c1 (single isomer, unassigned) [Example 124, 2-[1-[2-[1-(4-Cyanophenyl)triazol-4-yl]-6-methyl-4-oxo-chromen-8-yl]ethylamino]benzoic acid, Isomer 2,2,2,2-trifluoroacetic acid] | < 0.5 | 1 to 5 | 0.05 to 0.1
 | Cc1cc(C(C)Nc2ccccc2C(=O)O)c2oc(-c3cncc(C#N)c3)c(C)c(=O)c2c1 (single isomer, unassigned) [Example 125, 2-[1-[2-(5-Cyano-3-pyridyl)-3,6-dimethyl-4-oxo-chromen-8-yl]ethylamino]benzoic acid, Isomer 1,2,2,2-trifluoroacetic acid] | < 0.5 | 0.5 to 1 | < 0.05
 | Cc1cc(C(C)Nc2ccccc2C(=O)O)c2oc(-c3cnc(-c4ccccc4)s3)c(C)c(=O)c2c1 (single isomer, unassigned) [Example 126, 2-[1-[3,6-Dimethyl-4-oxo-2-(2-phenylthiazol-5-yl)chromen-8-yl]ethylamino]benzoic acid, Isomer 1,2,2,2-trifluoroacetic acid] | < 0.5 | < 0.5 | 0.05 to 0.1
 | Cc1cc(C(C)Nc2ccccc2C(=O)O)c2oc(-c3cncc(-n4cccn4)c3)c(C)c(=O)c2c1 (single isomer, unassigned) [Example 127, 2-[1-[3,6-Dimethyl-4-oxo-2-(5-pyrazol-1-yl-3-pyridyl)chromen-8-yl]ethylamino]benzoic acid, Isomer 1,2,2,2-trifluoroacetic acid] | < 0.5 | 1 to 5 | < 0.05
> 0.5 | COc1ccc(-c2cc(=O)c3cc(C)cc(C(C)Nc4ccccc4C(=O)O)c3o2)cn1 (single isomer, unassigned; isomer 1) [Example 19, 2-[1-[2-(6-Methoxy-3-pyridyl)-6-methyl-4-oxo-chromen-8-yl]ethylamino]benzoic acid, Isomer 1] | 5 to 10 | > 10 | 
> 0.5 | COc1cccc(-c2cc(=O)c3cc(C)cc(C(C)Nc4ccccc4C(=O)O)c3o2)n1 (single isomer, unassigned; isomer 1) [Example 21, 2-[1-[2-(6-Methoxy-2-pyridyl)-6-methyl-4-oxo-chromen-8-yl]ethylamino]benzoic acid, Isomer 1] | 5 to 10 | > 10 | 
